This passage reports IC50 results from patent publication US12378224B2 (Dong-A Socio Holdings Co., Ltd., priority 2016, dated 2025).

The target in the assay is human MER (528-end) (Homo sapiens (Human), UniProt Q12866). Kind of assay: HTRF Kinase Activity Biochemical Assay (KinEASE-TK). As to conditions: 10 uM ATP. A digest of the protocol: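 Recombinant human MER (528-end) phosphorylated biotin-TK peptide substrate, 1 h at room temperature. Reaction stopped with detection buffer containing 0.375 nM Eu3+-cryptate anti-TK antibody and 0.062 uM streptavidin-XL665, 1 h further. Activity taken as HTRF ratio 665/620 nm ×10,000, 340 nm excitation.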
Sequence of human MER (528-end) (Q12866 528-999 limits assumed): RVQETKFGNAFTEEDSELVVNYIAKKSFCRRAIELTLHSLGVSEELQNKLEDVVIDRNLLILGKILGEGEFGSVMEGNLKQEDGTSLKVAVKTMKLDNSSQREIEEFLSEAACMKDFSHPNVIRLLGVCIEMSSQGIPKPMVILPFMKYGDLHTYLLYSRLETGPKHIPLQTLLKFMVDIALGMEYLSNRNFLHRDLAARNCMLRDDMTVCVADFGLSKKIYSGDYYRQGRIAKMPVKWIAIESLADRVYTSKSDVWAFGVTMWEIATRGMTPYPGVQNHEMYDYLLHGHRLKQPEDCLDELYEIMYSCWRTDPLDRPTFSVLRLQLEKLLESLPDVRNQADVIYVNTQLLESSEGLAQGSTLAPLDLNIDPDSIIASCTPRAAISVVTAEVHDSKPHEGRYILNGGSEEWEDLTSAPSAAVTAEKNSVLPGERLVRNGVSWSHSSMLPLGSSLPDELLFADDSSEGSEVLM

Usually IC50 stands for the midpoint of a concentration-inhibition curve. Lower therefore signals inhibition by little substance. As to `Cc1ccc(OC(=O)N2CC[C@@H](NC(=O)c3cc(-c4cnn(C)c4)cnc3N)C2)cc1C` [Example 94, 3,4-dimethylphenyl (R)-3-(2-amino-5-(1-methyl-1H-pyrazol-4-yl)nicotinamido)pyrrolidine-1-carboxylate], the IC50 is over 1000 nM.

On to `CN1CCC(n2cc(-c3cnc(N)c(C(=O)N[C@@H]4CCN(C(=O)Oc5cccc(-c6ccccc6)c5)C4)c3)cn2)CC1` [Example 96, [1,1′-biphenyl]-3-yl (R)-3-(2-amino-5-(1-(1-methylpiperidin-4-yl)-1H-pyrazol-4-yl)nicotinamido)pyrrolidine-1-carboxylate], for which the IC50 lay in the range of 100 to 1000 nM.

As to `Cn1cc(-c2cnc(N)c(C(=O)N[C@@H]3CCN(C(=O)Oc4cc5ccccc5cc4O)C3)c2)cn1` [Example 97, 3-hydroxynaphthalen-2-yl (R)-3-(2-amino-5-(1-methyl-1H-pyrazol-4-yl)nicotinamido)pyrrolidine-1-carboxylate], the 50% inhibitory concentration (IC50) is over 1000 nM.

The compound `Cn1cc(-c2cnc(N)c(C(=O)N[C@@H]3CCN(C(=O)Oc4ccccc4O)C3)c2)cn1` [Example 98, 2-hydroxyphenyl (R)-3-(2-amino-5-(1-methyl-1H-pyrazol-4-yl)nicotinamido)pyrrolidine-1-carboxylate] registered an IC50 of over 1000 nM.

Compound `Cn1cc(-c2cnc(N)c(C(=O)N[C@@H]3CCN(C(=O)Oc4ccc(Cl)cc4N)C3)c2)cn1` [Example 99, 2-amino-4-chlorophenyl (R)-3-(2-amino-5-(1-methyl-1H-pyrazol-4-yl)nicotinamido)pyrrolidine-1-carboxylate] had an IC50 of over 1000 nM.

Compound `Cn1cc(-c2cnc(N)c(C(=O)N[C@@H]3CCN(C(=O)Oc4cc([N+](=O)[O-])ccc4N)C3)c2)cn1` [Example 100, 2-amino-5-nitrophenyl (R)-3-(2-amino-5-(1-methyl-1H-pyrazol-4-yl)nicotinamido)pyrrolidine-1-carboxylate] displayed an IC50 of over 1000 nM.

As for `Cn1cc(-c2cnc(N)c(C(=O)N[C@@H]3CCN(C(=O)Oc4cccc(O)c4)C3)c2)cn1` [Example 101, 3-hydroxyphenyl (R)-3-(2-amino-5-(1-methyl-1H-pyrazol-4-yl)nicotinamido)pyrrolidine-1-carboxylate], the IC50 was over 1000 nM.

Compound `Cn1cc(-c2cnc(N)c(C(=O)N[C@@H]3CCN(C(=O)Oc4ccc(Oc5ccccc5)cc4)C3)c2)cn1` [Example 102, 4-phenoxyphenyl (R)-3-(2-amino-5-(1-methyl-1H-pyrazol-4-yl)nicotinamido)pyrrolidine-1-carboxylate] registered an IC50 of 100 to 1000 nM.

For `Cn1cc(-c2cnc(N)c(C(=O)N[C@@H]3CCN(C(=O)Oc4ccc5ccccc5c4)C3)c2)cn1` [Example 103, naphthalen-2-yl (R)-3-(2-amino-5-(1-methyl-1H-pyrazol-4-yl)nicotinamido)pyrrolidine-1-carboxylate], the IC50 is 100 to 1000 nM.

As for `Cn1cc(-c2cnc(N)c(C(=O)N[C@@H]3CCN(C(=O)Oc4ccc5cc(O)ccc5c4)C3)c2)cn1` [Example 104, 6-hydroxynaphthalen-2-yl (R)-3-(2-amino-5-(1-methyl-1H-pyrazol-4-yl)nicotinamido)pyrrolidine-1-carboxylate], the IC50 lay in the range of 100 to 1000 nM.

`Cn1cc(-c2cnc(N)c(C(=O)N[C@@H]3CCN(C(=O)O[C@H]4C[C@H]5CC[C@@H]4C5)C3)c2)cn1` [Example 105, (1R,2S,4S)-bicyclo[2.2.1]heptan-2-yl (R)-3-(2-amino-5-(1-methyl-1H-pyrazol-4-yl)nicotinamido)pyrrolidine-1-carboxylate]: the concentration for half-maximal inhibition (IC50) is over 1000 nM.

Consider `Cn1cc(-c2cnc(N)c(C(=O)N[C@@H]3CCN(C(=O)OC4CCCC4)C3)c2)cn1` [Example 106, cyclopentyl (R)-3-(2-amino-5-(1-methyl-1H-pyrazol-4-yl)nicotinamido)pyrrolidine-1-carboxylate], for which the IC50 is over 1000 nM.

`Cn1cc(-c2cnc(N)c(C(=O)N[C@@H]3CCN(C(=O)OC4CCCCCC4)C3)c2)cn1` [Example 107, cycloheptyl (R)-3-(2-amino-5-(1-methyl-1H-pyrazol-4-yl)nicotinamido)pyrrolidine-1-carboxylate] showed an IC50 of over 1000 nM.

Compound `Cn1cc(-c2cnc(N)c(C(=O)N[C@@H]3CCN(C(=O)O[C@H]4C[C@@H]5CC[C@H]4C5)C3)c2)cn1` [Example 109, (1S,2S,4R)-bicyclo[2.2.1]heptan-2-yl (R)-3-(2-amino-5-(1-methyl-1H-pyrazol-4-yl)nicotinamido)pyrrolidine-1-carboxylate] came in with an IC50 of over 1000 nM.

Take `Cn1cc(-c2cnc(N)c(C(=O)N[C@@H]3CCN(C(=O)Oc4cccc(Oc5ccccc5)c4)C3)c2)cn1` [Example 110, 3-phenoxyphenyl (R)-3-(2-amino-5-(1-methyl-1H-pyrazol-4-yl)nicotinamido)pyrrolidine-1-carboxylate]: the IC50 was 100 to 1000 nM.

Compound `Cn1cc(-c2cnc(N)c(C(=O)N[C@@H]3CCN(C(=O)Oc4ccc(Oc5ccc([N+](=O)[O-])cc5)cc4)C3)c2)cn1` [Example 111, 4-(4-nitrophenoxy)phenyl (R)-3-(2-amino-5-(1-methyl-1H-pyrazol-4-yl)nicotinamido)pyrrolidine-1-carboxylate] returned an IC50 of over 1000 nM.

`Cn1cc(-c2cnc(N)c(C(=O)N[C@@H]3CCN(C(=O)Oc4ccc(Oc5ccc(N)cc5)cc4)C3)c2)cn1` [Example 112, 4-(4-aminophenoxy)phenyl (R)-3-(2-amino-5-(1-methyl-1H-pyrazol-4-yl)nicotinamido)pyrrolidine-1-carboxylate] came in with an IC50 of 100 to 1000 nM.

The compound `Cn1cc(-c2cnc(N)c(C(=O)N[C@@H]3CCN(C(=O)Oc4ccc(Oc5ccc(CO)cc5)cc4)C3)c2)cn1` [Example 114, 4-(4-(hydroxymethyl)phenoxy)phenyl (R)-3-(2-amino-5-(1-methyl-1H-pyrazol-4-yl)nicotinamido)pyrrolidine-1-carboxylate] displayed an IC50 of 100 to 1000 nM.

For `CN(C)Cc1ccc(Oc2ccc(OC(=O)N3CC[C@@H](NC(=O)c4cc(-c5cnn(C)c5)cnc4N)C3)cc2)cc1` [Example 115, 4-(4-((dimethylamino)methyl)phenoxy)phenyl (R)-3-(2-amino-5-(1-methyl-1H-pyrazol-4-yl)nicotinamido)pyrrolidine-1-carboxylate], the IC50 fell in the range of 100 to 1000 nM.

Compound `Cn1cc(-c2cnc(N)c(C(=O)N[C@@H]3CCN(C(=O)Oc4cc(Cl)cc(Cl)c4)C3)c2)cn1` [Example 116, 3,5-dichlorophenyl (R)-3-(2-amino-5-(1-methyl-1H-pyrazol-4-yl)nicotinamido)pyrrolidine-1-carboxylate] came in with an IC50 of 100 to 1000 nM.

The compound `CN1CCC(n2cc(-c3cnc(N)c(C(=O)N[C@@H]4CCN(C(=O)Oc5ccccc5)C4)c3)cn2)CC1` [Example 119, phenyl (R)-3-(2-amino-5-(1-(1-methylpiperidin-4-yl)-1H-pyrazol-4-yl)nicotinamido)pyrrolidine-1-carboxylate] registered an IC50 of over 1000 nM.

`Cn1cc(-c2cnc(N)c(C(=O)N[C@@H]3CCN(C(=O)OC4CCC(c5ccccc5)CC4)C3)c2)cn1` (stereo partly drawn) [Example 125, 4-phenylcyclohexyl (R)-3-(2-amino-5-(1-methyl-1H-pyrazol-4-yl)nicotinamido)pyrrolidine-1-carboxylate] yielded an IC50 of over 1000 nM.

As for `CN(C(=O)c1cc(-c2cnn(C)c2)cnc1N)[C@@H]1CCN(C(=O)Oc2cccc(-c3ccccc3)c2)C1` [Example 130, [1,1′-biphenyl]-3-yl (R)-3-(2-amino-N-methyl-5-(1-methyl-1H-pyrazol-4-yl)nicotinamido)pyrrolidine-1-carboxylate], the IC50 is over 1000 nM.

`Cn1cc(-c2cnc(N)c(C(=O)N[C@@H]3CCN(c4nc5ccccc5[nH]4)C3)c2)cn1` [Example 133, (R)—N-(1-(1H-benzo[d]imidazol-2-yl)pyrrolidin-3-yl)-2-amino-5-(1-methyl-1H-pyrazol-4-yl)nicotinamide] had an IC50 of over 1000 nM.

For the compound `Cn1cc(-c2cnc(N)c(C(=O)N[C@@H]3CCN(c4ccccn4)C3)c2)cn1` [Example 135, (R)-2-amino-5-(1-methyl-1H-pyrazol-4-yl)-N-(1-(pyridin-2-yl)pyrrolidin-3-yl)nicotinamide], the IC50 was over 1000 nM.

For `CCc1cnc(N2CC[C@@H](NC(=O)c3cc(-c4cnn(C)c4)cnc3N)C2)nc1` [Example 136, (R)-2-amino-N-(1-(5-ethylpyrimidin-2-yl)pyrrolidin-3-yl)-5-(1-methyl-1H-pyrazol-4-yl)nicotinamide], the IC50 is over 1000 nM.

Take `Cn1cc(-c2cnc(N)c(C(=O)N[C@@H]3CCN(c4ncc5ccccc5n4)C3)c2)cn1` [Example 137, (R)-2-amino-5-(1-methyl-1H-pyrazol-4-yl)-N-(1-(quinazolin-2-yl)pyrrolidin-3-yl)nicotinamide]: the IC50 was over 1000 nM.

For the compound `CCOC(=O)c1csc(N2CC[C@@H](NC(=O)c3cc(-c4cnn(C)c4)cnc3N)C2)n1` [Example 139, ethyl (R)-2-(3-(2-amino-5-(1-methyl-1H-pyrazol-4-yl)nicotinamido)pyrrolidin-1-yl)thiazole-4-carboxylate], the IC50 is over 1000 nM.

As for `Nc1ncc(-c2cnn(C3CCNCC3)c2)cc1C(=O)N[C@@H]1CCN(C(=O)Nc2cc(Cl)cc(Cl)c2)C1` [Example 146, (R)-2-amino-N-(1-((3,5-dichlorophenyl)carbamoyl)pyrrolidin-3-yl)-5-(1-(piperidin-4-yl)-1H-pyrazol-4-yl)nicotinamide], the IC50 lay in the range of 10 to 100 nM.

Compound `Nc1ncc(-c2cnn(C3CCNCC3)c2)cc1C(=O)N[C@@H]1CCN(C(=O)Oc2cccc(-c3ccccc3)c2)C1` [Example 147, [1,1′-biphenyl]-3-yl (R)-3-(2-amino-5-(1-(piperidin-4-yl)-1H-pyrazol-4-yl)nicotinamido)pyrrolidine-1-carboxylate] yielded an IC50 of 10 to 100 nM.

The compound `CC(c1ccc(Cl)c(Cl)c1)N1CC[C@@H](NC(=O)c2cc(-c3cnn(C4CCNCC4)c3)cnc2N)C1` (stereo partly drawn) [Example 150, 2-amino-N-((3R)-1-(1-(3,4-dichlorophenyl)ethyl)pyrrolidin-3-yl)-5-(1-(piperidin-4-yl)-1H-pyrazol-4-yl)nicotinamide] had an IC50 of over 1000 nM.
